Results reported in patent publication US20240018158A1, “BRM TARGETING COMPOUNDS AND ASSOCIATED METHODS OF USE” (Prelude Therapeutics Incorporated, priority 2020, published 2024).

How the values were obtained:
SMARCA2 = SMARCA2 (Homo sapiens (Human), UniProt P51531); experiment: SMARCA2 HiBiT degradation assay in HeLa cells; assay type: cell-based; details: 18 hours; for DC50: read-out: DC50 (SM2-HeLa) SMARCA2 degradation potency; for Dmax: read-out: Dmax % (SM2-HeLa) maximum SMARCA2 degradation within the concentrations tested
Outline: (§1)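 HeLa monoclonal lines carrying a heterozygous HiBiT knock-in on SMARCA2 or SMARCA4 were seeded at 2500 cells/well in EMEM with 10% FBS. After 18 h compound exposure at 37 °C, Nano-Glo HiBiT lytic detection ran 30-60 min at RT before the luminescence read. Values are from curve fits.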

SMARCA4 = SMARCA4 (Homo sapiens (Human), UniProt P51532); experiment: SMARCA4 HiBiT degradation assay in HeLa cells; assay type: cell-based; details: 18 hours; for DC50: read-out: DC50 (SM4-HeLa) SMARCA4 degradation potency; for Dmax: HeLa, read-out: Dmax % (SM4-HeLa) maximum SMARCA4 degradation within the concentrations tested
Outline: as §1

Sequence of SMARCA4 (P51532 whole entry): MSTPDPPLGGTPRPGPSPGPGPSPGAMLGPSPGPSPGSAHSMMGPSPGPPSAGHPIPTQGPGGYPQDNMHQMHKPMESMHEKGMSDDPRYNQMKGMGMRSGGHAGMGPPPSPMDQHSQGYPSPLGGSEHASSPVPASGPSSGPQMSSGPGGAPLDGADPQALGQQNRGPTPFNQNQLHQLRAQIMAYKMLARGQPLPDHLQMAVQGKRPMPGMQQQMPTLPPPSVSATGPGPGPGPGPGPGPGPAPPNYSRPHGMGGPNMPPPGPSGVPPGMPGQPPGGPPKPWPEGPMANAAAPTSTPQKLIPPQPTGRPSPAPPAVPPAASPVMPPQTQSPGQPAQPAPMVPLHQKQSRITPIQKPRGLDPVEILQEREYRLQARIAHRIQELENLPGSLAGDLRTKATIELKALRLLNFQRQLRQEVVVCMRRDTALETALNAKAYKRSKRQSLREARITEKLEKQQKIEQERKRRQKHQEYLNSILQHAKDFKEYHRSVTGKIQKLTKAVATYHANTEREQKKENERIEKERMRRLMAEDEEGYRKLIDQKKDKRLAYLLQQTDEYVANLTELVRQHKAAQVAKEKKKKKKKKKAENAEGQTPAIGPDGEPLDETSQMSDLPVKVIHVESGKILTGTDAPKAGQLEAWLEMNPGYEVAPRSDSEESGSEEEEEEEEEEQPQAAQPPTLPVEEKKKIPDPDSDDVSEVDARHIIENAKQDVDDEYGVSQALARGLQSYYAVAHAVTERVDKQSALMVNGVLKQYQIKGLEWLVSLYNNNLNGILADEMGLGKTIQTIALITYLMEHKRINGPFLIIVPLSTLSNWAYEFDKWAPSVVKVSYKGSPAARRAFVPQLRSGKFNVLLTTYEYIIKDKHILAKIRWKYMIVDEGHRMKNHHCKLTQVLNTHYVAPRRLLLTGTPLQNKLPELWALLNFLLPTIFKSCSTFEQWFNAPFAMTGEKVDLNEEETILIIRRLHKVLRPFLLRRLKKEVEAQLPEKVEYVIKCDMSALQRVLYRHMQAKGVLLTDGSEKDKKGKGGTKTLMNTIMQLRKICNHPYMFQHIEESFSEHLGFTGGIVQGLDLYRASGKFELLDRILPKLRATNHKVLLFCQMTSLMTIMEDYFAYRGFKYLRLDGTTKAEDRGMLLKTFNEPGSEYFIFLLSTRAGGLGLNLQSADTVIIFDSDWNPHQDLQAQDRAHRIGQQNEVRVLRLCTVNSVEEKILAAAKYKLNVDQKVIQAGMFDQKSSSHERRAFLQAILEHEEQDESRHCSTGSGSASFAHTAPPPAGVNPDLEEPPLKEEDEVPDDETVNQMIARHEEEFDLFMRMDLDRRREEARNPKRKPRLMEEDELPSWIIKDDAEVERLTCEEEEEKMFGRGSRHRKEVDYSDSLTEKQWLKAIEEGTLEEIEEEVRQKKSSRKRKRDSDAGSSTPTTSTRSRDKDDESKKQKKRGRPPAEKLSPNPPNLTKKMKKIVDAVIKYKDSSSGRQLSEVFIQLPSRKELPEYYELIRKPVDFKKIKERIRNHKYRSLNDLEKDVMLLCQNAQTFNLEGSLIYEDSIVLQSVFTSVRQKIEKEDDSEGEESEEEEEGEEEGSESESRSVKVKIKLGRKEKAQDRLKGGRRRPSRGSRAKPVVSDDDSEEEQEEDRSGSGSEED
Sequence of SMARCA2 (P51531 whole entry): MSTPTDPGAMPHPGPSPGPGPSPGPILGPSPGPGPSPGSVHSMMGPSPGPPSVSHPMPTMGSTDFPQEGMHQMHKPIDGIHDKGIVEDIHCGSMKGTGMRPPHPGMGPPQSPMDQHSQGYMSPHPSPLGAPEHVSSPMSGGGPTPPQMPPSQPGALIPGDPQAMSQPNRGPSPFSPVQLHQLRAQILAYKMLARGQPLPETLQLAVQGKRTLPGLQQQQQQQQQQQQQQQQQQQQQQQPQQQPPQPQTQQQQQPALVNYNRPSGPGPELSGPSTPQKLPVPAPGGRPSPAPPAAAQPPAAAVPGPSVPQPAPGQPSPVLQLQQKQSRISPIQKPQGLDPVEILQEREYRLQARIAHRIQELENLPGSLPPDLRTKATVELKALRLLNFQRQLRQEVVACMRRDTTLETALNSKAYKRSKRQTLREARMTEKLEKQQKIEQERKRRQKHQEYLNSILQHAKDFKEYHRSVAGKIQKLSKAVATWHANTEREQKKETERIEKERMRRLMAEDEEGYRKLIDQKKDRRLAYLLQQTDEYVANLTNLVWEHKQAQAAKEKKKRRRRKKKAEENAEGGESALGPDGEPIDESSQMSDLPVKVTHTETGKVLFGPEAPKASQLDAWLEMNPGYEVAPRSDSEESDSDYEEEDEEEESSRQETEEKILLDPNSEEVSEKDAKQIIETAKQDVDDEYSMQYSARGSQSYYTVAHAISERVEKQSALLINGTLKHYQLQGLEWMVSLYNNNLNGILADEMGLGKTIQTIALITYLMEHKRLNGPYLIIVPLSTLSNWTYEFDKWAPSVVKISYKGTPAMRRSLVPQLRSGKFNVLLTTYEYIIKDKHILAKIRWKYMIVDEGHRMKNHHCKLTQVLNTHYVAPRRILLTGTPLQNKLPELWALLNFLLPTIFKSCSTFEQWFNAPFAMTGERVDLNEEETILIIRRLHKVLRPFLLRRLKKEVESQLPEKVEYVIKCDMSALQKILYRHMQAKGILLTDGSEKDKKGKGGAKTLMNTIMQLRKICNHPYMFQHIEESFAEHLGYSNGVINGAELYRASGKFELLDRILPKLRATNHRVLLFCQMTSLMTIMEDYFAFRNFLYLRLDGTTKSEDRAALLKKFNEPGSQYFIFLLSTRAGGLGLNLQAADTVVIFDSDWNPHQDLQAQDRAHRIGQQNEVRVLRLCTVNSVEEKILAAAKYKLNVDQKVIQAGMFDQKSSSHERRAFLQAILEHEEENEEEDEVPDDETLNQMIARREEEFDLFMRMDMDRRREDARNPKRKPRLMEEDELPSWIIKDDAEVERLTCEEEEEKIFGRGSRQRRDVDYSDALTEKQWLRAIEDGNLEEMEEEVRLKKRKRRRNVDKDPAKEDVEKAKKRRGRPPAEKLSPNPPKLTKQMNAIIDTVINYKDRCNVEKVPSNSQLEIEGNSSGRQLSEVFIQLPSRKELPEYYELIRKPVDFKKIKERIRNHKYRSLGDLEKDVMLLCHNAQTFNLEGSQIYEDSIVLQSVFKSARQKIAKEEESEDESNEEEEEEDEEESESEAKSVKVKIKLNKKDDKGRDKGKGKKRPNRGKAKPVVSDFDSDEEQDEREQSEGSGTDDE

For Cc1ncsc1-c1ccc([C@H](C)NC(=O)[C@@H]2C[C@@H](O)CN2C(=O)[C@@H](c2cc(O[C@@H](C)CN3CCC(N4CCN5c6cc(-c7ccccc7O)nnc6NC(C)C5C4)CC3)no2)C(C)C)cc1 (stereo partly drawn) [Example 97, (2S,4R)-4-hydroxy-1-((2R)-2-(3-(((2S)-1-(4-(2-(2-hydroxyphenyl)-6-methyl-5,6,6a,7,9,10-hexahydro-8H-pyrazino[1′,2′:4,5]pyrazino[2,3-c]pyridazin-8-yl)piperidin-1-yl)propan-2-yl)oxy)isoxazol-5-yl)-3-methylbutanoyl)-N-((S)-1-(4-(4-methylthiazol-5-yl)phenyl)ethyl)pyrrolidine-2-carboxamide], the DC50 (SMARCA2) was under 100 nM, the Dmax (SMARCA2) was over 75% and the DC50 (SMARCA4) was under 100 nM. The Dmax (SMARCA4) was over 75%.
For Cc1ncsc1-c1ccc([C@H](C)NC(=O)[C@@H]2C[C@@H](O)CN2C(=O)[C@@H](c2cc(OCCN3CCC(N4CCN5c6cc(-c7ccccc7O)nnc6NCC5(C)C4)CC3)no2)C(C)C)cc1 (stereo partly drawn) [Example 63, (2S,4R)-4-hydroxy-1-((2R)-2-(3-(2-(4-(2-(2-hydroxyphenyl)-6a-methyl-5,6,6a,7,9,10-hexahydro-8H-pyrazino[1′,2′:4,5]pyrazino[2,3-c]pyridazin-8-yl)piperidin-1-yl)ethoxy)isoxazol-5-yl)-3-methylbutanoyl)-N-((S)-1-(4-(4-methylthiazol-5-yl)phenyl)ethyl)pyrrolidine-2-carboxamide], the DC50 (SMARCA2) was under 100 nM, the Dmax (SMARCA2) was over 75% and the DC50 (SMARCA4) was under 100 nM. It also gave a Dmax (SMARCA4) of over 75%.
With Cc1ncsc1-c1ccc([C@H](C)NC(=O)[C@@H]2C[C@@H](O)CN2C(=O)[C@@H](c2cc(O[C@@H](C)CN3CCC(N4CCN5c6cc(-c7ccccc7O)nnc6NC[C@H]5C4)C3)no2)C(C)C)cc1 (stereo partly drawn) [Example 48, (2S,4R)-4-hydroxy-1-((2R)-2-(3-(((2S)-1-(3-((S)-2-(2-hydroxyphenyl)-5,6,6a,7,9,10-hexahydro-8H-pyrazino[1′,2′:4,5]pyrazino[2,3-c]pyridazin-8-yl)pyrrolidin-1-yl)propan-2-yl)oxy)isoxazol-5-yl)-3-methylbutanoyl)N-((S)-1-(4-(4-methylthiazol-5-yl)phenyl)ethyl)pyrrolidine-2-carboxamide] the DC50 (SMARCA2) was under 100 nM, the Dmax (SMARCA2) was over 75% and the “Dmax % (SM4-HeLa) maximum SMARCA4 degradation within the concentrations tested” value (SMARCA4) was “B (B = 50%< Dmax <=75%)”. The DC50 (SMARCA4) was under 100 nM.
Cc1ncsc1-c1ccc([C@H](C)NC(=O)[C@@H]2C[C@@H](O)CN2C(=O)[C@@H](c2cc(O[C@H](C)CN3CCC(N4CCN5c6cc(-c7ccccc7O)nnc6NC[C@H]5C4)C3)no2)C(C)C)cc1 (single isomer, unassigned) [Example 50] gave a DC50 (SMARCA2) of under 100 nM, a Dmax (SMARCA2) of over 75% and a DC50 (SMARCA4) of under 100 nM. It also gave a Dmax (SMARCA4) of over 75%.
Molecule Cc1ncsc1-c1ccc([C@H](CO)NC(=O)[C@@H]2C[C@@H](O)CN2C(=O)C(c2cc(OCCN3CCC(CN4CCN5c6cc(-c7ccccc7O)nnc6NC[C@H]5C4)CC3)no2)C(C)C)cc1 (stereo partly drawn) [Example 46, (2S,4R)-4-hydroxy-N-((R)-2-hydroxy-1-(4-(4-methylthiazol-5-yl)phenyl)ethyl)-1-(2-(3-(2-(4-(((S)-2-(2-hydroxyphenyl)-5,6,6a,7,9,10-hexahydro-8H-pyrazino[1′,2′:4,5]pyrazino[2,3-c]pyridazin-8-yl)methyl)piperidin-1-yl)ethoxy)isoxazol-5-yl)-3-methylbutanoyl)pyrrolidine-2-carboxamide] has a DC50 (SMARCA2) of under 100 nM, a Dmax (SMARCA2) of over 75% and a DC50 (SMARCA4) of 100 to 1000 nM. It also gave a Dmax (SMARCA4) of over 75%.
Cc1ncsc1-c1ccc([C@H](C)NC(=O)[C@@H]2C[C@@H](O)CN2C(=O)[C@@H](c2cc(OCCN3CCC(N4CCN5c6cc(-c7ccccc7O)nnc6NC[C@H]5C4)C(O)C3)no2)C(C)C)cc1 (stereo partly drawn) [Example 94, (2S,4R)-4-hydroxy-1-((2R)-2-(3-(2-(3-hydroxy-4-((S)-2-(2-hydroxyphenyl)-5,6,6a,7,9,10-hexahydro-8H-pyrazino[1′,2′:4,5]pyrazino[2,3-c]pyridazin-8-yl)piperidin-1-yl)ethoxy)isoxazol-5-yl)-3-methylbutanoyl)-N-((S)-1-(4-(4-methylthiazol-5-yl)phenyl)ethyl)pyrrolidine-2-carboxamide] gave a DC50 (SMARCA2) of under 100 nM, a Dmax (SMARCA2) of over 75% and a DC50 (SMARCA4) of under 100 nM. The Dmax (SMARCA4) was over 75%.
